Assay results: US20090264382A1, “Methods for Treating Hematopoietic Neoplasms” (priority 2007, published 2009)

Assays:
[1] = tested on: KG1a leukemic cells; experiment: Cell cycle analysis with propidium iodide; assay type: cell-based, human; details: 5 and 10 nM, 48 hours
[2] = tested on: AML cell lines; experiment: Annexin-V/propidium iodide apoptosis by flow cytometry; assay type: cell-based, human; details: 48 hours
Method: CA4P-treated AML cells were subjected to Annexin-V/propidium iodide (PI) staining and quantification by flow cytometry. Combretastatin A-4 phosphate (CA4P) induces caspase-independent apoptosis in leukemic cells. CA4P induces apoptosis of leukemic cells. Leukemic cells were treated with or without CA4P for 48 hours and the percentage of apoptotic leukemic cells was determined by Annexin V and propidium iodide staining using flow cytometry. Results are representative of three independent experiments. […] In the majority of AML cell lines tested, CA4P at a concentration of 5 nM induced phosphatidylserine externalization (Annexin V+) in more than 50% of the leukemic cells.

[3] = tested on: KG1a leukemic cells; experiment: Release of nuclear HMG1 protein into supernatant (necrosis marker), Western blot; assay type: cell-based, human; details: 24 hours, CA4P 20 mM, staurosporine 100 μM as printed
Method: Nonetheless, to rule out the possibility that CA4P may trigger necrotic cell death in subsets of the leukemic cells, the release of nuclear HMG1 protein into the culture supernatant, which has been described as a sensitive and highly specific marker for necrotic cell death (Scaffidi, et al. 2002. Nature 418, 191-5), was quantified. For detection of HMG1 protein, KG1a leukemic cells (1×106 in 2 ml X-vivo/5% FBS) were incubated with 100 μM staurosporine to induce apoptosis, freeze-thawed three times to induce necrosis, or treated with 20 mM CA4P for 24 hours. Cells were spun down, pelleted and the supernatant subjected to Western blot for HMG135.

[4] = tested on: leukemic cells; experiment: Intracellular ROS detection with H2DCFDA; assay type: cell-based, human; details: after CA4P exposure
Method: Intracellular ROS were detected as previously described (Krejsa & Schieven, Methods Mol Biol 99:35-47 (2000)). Briefly, leukemic cells were loaded with 2 μM H2DCFDA (Molecular Probes) in assay buffer (RPMI with 10 mM HEPES) for 30 min. at 37° C. and mean fluorescent intensity was measured by flow cytometry. Results are shown from triplicate measurements (±SEM) and are representative of three independent experiments (*p<0.05 as compared with untreated cells; n=3).

[5] = tested on: GFP+HL60 cells; experiment: Systemic in vivo leukemia model, GFP+HL60; parameters: species or system NOD-SCID mice
Method: NOD-SCID mice were intravenously inoculated with 1×10^7 GFP+HL60 cells. The HL60 cells were labeled with green fluorescent protein (GFP) by a lentiviral construct, and inoculated systemically through tail vein injection. Three days after inoculation, mice were divided into 2 groups of five mice. One group was treated every other day with PBS (control) and the second group received 25 mg/kg CA4P every other day. Each experiment was done three times. At day 30 after the start of the experiment, two mice from each group were killed, and their organs (spleen, liver and lung), peripheral blood and marrow of surgically removed femurs were collected, and analyzed for the presence of human leukemic cells by flow cytometry. Single cell suspension was stained using phytoerythrin-labeled anti-human CD45 mAb (Pharmingen), and the percentage of double positive human CD45-PE and GFP cells was determined flow cytometer. The extent of GFP+HL60 cell infiltration was assessed by fluorescence microscopy. In a second set of experiments, GFP+U937 cells were used instead of HL60 cells, and the animals sacrificed after 30 days.
In the untreated control group, the mice survived for 32-40 days only and succumbed to systemic spread of leukemia. […] This increase in survival was accompanied by a decrease in circulating leukemic cells observed 30 days after leukemic cell injection, as assessed by flow cytometry determination of double positive cells for human CD45 and GFP (0.9% for control vs. 0.2% for CA4P treatment, p<0.05, n=5) (FIG. 12). Thirty days after xenotransplantation of GFP+HL60 cell injection, the presence of GFP+HL60 cells in the peripheral blood and the different tissues of the mice was assessed by quantification of double positive GFP and human CD45 cells by flow cytometry. […] In contrast, control mice had massive leukemic infiltrates in the spleen (5.2%), liver (2.6%) and lung (3.5%) (FIG. 12).

[6] = tested on: VCAM-1; experiment: VCAM-1 immunofluorescence in subcutaneous HL60 AML tumors; assay type: in vivo, NOD-SCID mice; details: data not shown
Method: CA4P may modulate leukemia-vascular interactions, thereby disrupting chemo-protected niches for leukemic cells. […] NOD-SCID mice with subcutaneous HL60 AML tumors were treated with CA4P or PBS (untreated control).

[7] = tested on: VCAM-1; experiment: IL-1β-induced VCAM-1 expression in HUVECs, flow cytometry; assay type: cell-based, human; details: 1 to 5 nM
Method: Human umbilical vein endothelial cells (HUVECs) were activated with IL-1β (5 ng/ml) for 24 hours with CA4P added at concentrations from 0 to 5 nM. VCAM-1 expression was determined by flow cytometry with phytoerythrin-conjugated anti-CD106 (VCAM-1) mAb.

[8] = tested on: HL60 and U937 AML cells on HUVECs; experiment: Leukemic cell adhesion to and co-culture with HUVECs; assay type: cell-based, human
Method: To assess leukemic cell adhesion, 1×10^5 GFP+HL60 or U937 cells in X-vivo/5% FBS were added per well. The percentage of GFP++adherent cells was quantified by fluorescent microscopy. To compare the resistance of vascular-adherent to non-adherent leukemic cells in co-culture, leukemic cells were seeded on either IL-1β-activated or non-activated HUVECs, with addition of CA4P. After 48 hours, GFP++leukemic cells were removed from the wells by trypsinization and quantified by fluorescence microscopy and flow cytometry. […] The number of adherent cells is expressed as a percentage of total leukemic cells and representative of three independent experiments performed in triplicate SEM (*p<0.05 as compared to CA4P-untreated control).
Survival of GFP+U937 (E) and HL60 (F) leukemic cells co-cultured with HUVECs is expressed as a percentage of total cells. Adherent (i.e. attached to IL-1β activated HUVECs) and non-adherent leukemic cells (i.e. cultured with non-activated HUVECs) are depicted. Results are representative of three independent experiments performed in triplicate±SEM (*p<0.05).

[9] = day 30, 25 mg/kg every other day

COc1ccc(/C=C\c2cc(OC)c(OC)c(OC)c2)cc1OP(=O)(O)O [CA4P, combretastatin A-4 phosphate]
cell cycle effect [1]: G2/M arrest
leukemic cells with phosphatidylserine externalization (Annexin V+) ([2]; 5 nM, majority of AML cell lines tested): more than 50%
PI+, Annexin V(−) cells (necrotic) [2]: Only a small number
release of nuclear HMG1 protein into the supernatant [3]: not
intracellular ROS (H2DCFDA fluorescence) [4]: rapid accumulation of superoxide anions
survival of intravenously xenotransplanted mice ([5]; 25 mg/kg every other day): significantly increased survival
circulating leukemic cells (human CD45 and GFP double positive) in peripheral blood [5, 9]: 0.2%
engraftment of leukemic cells in the bone marrow [5, 9]: completely eradicated
human CD45 and GFP positive cells in the liver [5, 9]: 0.1%
infiltration of GFP+HL60 cells in the lung [5, 9]: no evidence of infiltration
infiltration of GFP+HL60 cells in the spleen [5, 9]: no evidence of infiltration
VCAM-1 expression in tumors [6]: significantly decreased VCAM-1 expression
apoptosis of HUVECs [7]: without inducing apoptosis
VCAM-1 expression on IL-1β-activated HUVECs ([7]; 24 hours, IL-1β 5 ng/ml): significantly reduced expression of VCAM-1
attachment of HL60 and U937 AML cells to HUVECs ([8]; in vitro): decreased attachment
sensitivity of leukemic cells to CA4P with decreased adhesion to HUVECs ([8]; non-adherent vs adherent to IL-1β activated HUVECs, 48 hours): more sensitive
